Data from ChEMBL document CHEMBL4052802, “Design, synthesis and biological evaluation of novel 3-oxo-4-oxa-5α-androst-17β-amide derivatives as dual 5α-reductase inhibitors and androgen receptor antagonists” (Bioorg Med Chem Lett, 2017).

Tests used:
LNCaP [1] = experiment: Cytotoxicity against human LNCAP cells after 48 hrs by MTT assay; format: functional, cell-based
LNCaP [2] = experiment: Growth inhibition of human LNCAP cells at 80 uM after 48 hrs by MTT assay relative to control; format: functional; conditions: read-out: GI
Rattus norvegicus = species: Rattus norvegicus; experiment: Inhibition of rat liver 5alpha-reductase at 50 uM using testosterone as substrate incubated for 30 mins measured for 10 mins by fluorescence assay relative to control
PC-3 [3] = experiment: Growth inhibition of human PC3 cells at 80 uM after 48 hrs by MTT assay relative to control; format: functional; conditions: PC-3, 48 h, read-out: GI
Androgen receptor = target: T1, Androgen receptor (Rattus norvegicus, UniProt P15207); experiment: Displacement of fluormone-AL Green from recombinant rat His-tagged/GST-fused androgen receptor LBD expressed in baculovirus expression system measured after 1.5 hrs by fluorescence polarization assay
T1 sequence (P15207 whole entry): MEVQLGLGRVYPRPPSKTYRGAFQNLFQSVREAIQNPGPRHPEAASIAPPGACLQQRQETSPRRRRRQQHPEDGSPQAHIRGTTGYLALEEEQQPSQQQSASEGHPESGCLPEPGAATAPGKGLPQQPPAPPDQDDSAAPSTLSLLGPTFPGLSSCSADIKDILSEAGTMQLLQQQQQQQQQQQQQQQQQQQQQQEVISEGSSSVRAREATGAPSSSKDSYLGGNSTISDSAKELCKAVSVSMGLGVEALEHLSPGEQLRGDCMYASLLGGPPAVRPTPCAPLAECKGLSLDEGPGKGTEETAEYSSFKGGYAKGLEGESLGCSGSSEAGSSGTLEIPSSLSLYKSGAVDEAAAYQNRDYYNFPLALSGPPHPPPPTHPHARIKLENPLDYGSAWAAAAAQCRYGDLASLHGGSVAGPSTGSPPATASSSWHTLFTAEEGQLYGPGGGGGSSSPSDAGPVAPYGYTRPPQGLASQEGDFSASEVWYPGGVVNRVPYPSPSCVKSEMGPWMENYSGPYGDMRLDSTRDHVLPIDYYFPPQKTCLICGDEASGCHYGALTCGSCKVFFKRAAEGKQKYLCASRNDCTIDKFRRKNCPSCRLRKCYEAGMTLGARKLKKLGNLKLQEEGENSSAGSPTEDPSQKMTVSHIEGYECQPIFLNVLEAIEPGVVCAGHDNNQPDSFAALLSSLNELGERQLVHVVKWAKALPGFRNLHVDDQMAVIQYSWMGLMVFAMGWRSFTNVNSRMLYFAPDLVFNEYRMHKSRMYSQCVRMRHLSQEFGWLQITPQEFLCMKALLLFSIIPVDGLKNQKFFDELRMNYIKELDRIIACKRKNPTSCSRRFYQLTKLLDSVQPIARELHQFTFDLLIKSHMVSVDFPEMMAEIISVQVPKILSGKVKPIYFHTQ

[4] = target: Androgen receptor (Homo sapiens) (UniProt P10275); experiment: Inhibition of recombinant human His-tagged/GST-fused androgen receptor LBD expressed in baculovirus expression system at 50 uM measured after 1.5 hrs by fluorescence polarization assay relative to control
[5] = Selectivity ratio of IC50 for human PC3 cells to IC50 for human LNCAP cells; format: functional
PC-3 [6] = experiment: Cytotoxicity against human PC3 cells after 48 hrs by MTT assay; format: functional, cell-based; conditions: PC-3, 48 h
Plasma [7] = experiment: Retention time in Sprague-Dawley rat plasma at 0.2 mg/kg, po measured after 24 hrs by total ion chromatographic method; format: ADME, organism-based; conditions: in vivo
Plasma [8] = experiment: Drug uptake in Sprague-Dawley rat plasma at 0.2 mg/kg, po after 6 hrs by LC-MS/MS analysis; format: ADME, organism-based; conditions: in vivo
[9] = Tmax in Sprague-Dawley rat at 0.2 mg/kg, po by LC-MS/MS analysis; format: ADME, organism-based; conditions: in vivo
[10] = Cmax in Sprague-Dawley rat at 0.2 mg/kg, po by LC-MS/MS analysis; format: ADME, organism-based; design: dose 0.2 mg/kg, route oral; conditions: in vivo
[11] = Elimination half-life in Sprague-Dawley rat at 0.2 mg/kg, po by LC-MS/MS analysis; format: ADME, organism-based; conditions: in vivo, read-out: beta t1/2 (converted)
[12] = AUC (0 to infinity) in Sprague-Dawley rat at 0.2 mg/kg, po by LC-MS/MS analysis; format: ADME, organism-based; design: dose 0.2 mg/kg, route oral, time infinity; conditions: in vivo
[13] = Inhibition of rat liver 5alpha-reductase using testosterone as substrate incubated for 30 mins measured for 10 mins by fluorescence assay
[14] = AUC (0 to t) in Sprague-Dawley rat at 0.2 mg/kg, po by LC-MS/MS analysis; format: ADME, organism-based; conditions: in vivo

Row | SMILES | IC50 (LNCaP [1]) [µM] | inhibition of growth at 80 µM (LNCaP [2]) [%] | inhibition (Rattus norvegicus) [%] | inhibition of growth at 80 µM (PC-3 [3]) [%] | IC50 (Androgen receptor) [µM] | inhibition [4] [%] | Ratio IC50 [5] | IC50 (PC-3 [6]) [µM] | Retention_time (Plasma [7]) [min] | Drug uptake (Plasma [8]) | Tmax [9] [h] | Cmax [10] [ng/mL] | half-life [11] [h] | AUC(0-inf) [12] [µg·h/mL] | IC50 [13] [µM] | AUC(0-t) [14] [µg·h/mL]
1 | C[C@]12CCC(=O)O[C@@H]1CC[C@@H]1[C@@H]2CC[C@]2(C)[C@@H](C(=O)N(Cc3ccccc3)Cc3ccccc3)CC[C@@H]12 | 29.8 | 81.8 | 69.8 | 12.9 | 16.8 | 57.1 | 4 | 127 |  |  |  |  |  |  |  | 
2 | CCCCN(CCCC)C(=O)[C@H]1CC[C@H]2[C@@H]3CC[C@H]4OC(=O)CC[C@]4(C)[C@H]3CC[C@]12C | 32.4 | 88.9 | 36.5 | 89.9 |  | 11.8 |  | 40.1 |  |  |  |  |  |  |  | 
3 | C[C@]12CCC(=O)O[C@@H]1CC[C@@H]1[C@@H]2CC[C@]2(C)[C@@H](C(=O)N(C3CCCCC3)C3CCCCC3)CC[C@@H]12 |  | 13.8 | 33.4 | 32 |  | 11.3 |  | 74.3 |  |  |  |  |  |  |  | 
4 | Cc1ccc(NC(=O)[C@H]2CC[C@H]3[C@@H]4CC[C@H]5OC(=O)CC[C@]5(C)[C@H]4CC[C@]23C)cc1 | 26.5 | 82.3 | 98.5 | 18.1 | 47.6 | 55.5 | 4 | 114 | 3.6 | Not Active | 3.83 | 6.89 | 4.74 | 0.0541 | 0.27 | 0.0525
5 | C[C@]12CCC(=O)O[C@@H]1CC[C@@H]1[C@@H]2CC[C@]2(C)[C@@H](C(=O)N3CCCCC3)CC[C@@H]12 |  | 12.3 | 89.3 | 26.2 |  | 17.4 |  | 85.4 |  |  |  |  |  |  | 6.01 | 
6 | CC(C)(C)NC(=O)[C@H]1CC[C@H]2[C@@H]3CC[C@H]4NC(=O)C=C[C@]4(C)[C@H]3CC[C@]12C [FINASTERIDE] |  |  | 94.3 | 0.4 |  |  |  | > 80 | 3.5 |  | 2.67 | 4.19 | 3.91 | 0.0238 | 0.59 | 0.0235
7 | CC(C)C(=O)Nc1ccc([N+](=O)[O-])c(C(F)(F)F)c1 [FLUTAMIDE] | 47.6 | 63 |  | 21.2 |  |  |  | 67.3 |  |  |  |  |  |  |  | 
8 | C[C@]12CCC(=O)O[C@@H]1CC[C@@H]1[C@@H]2CC[C@]2(C)[C@@H](C(=O)Nc3ccc(F)cc3)CC[C@@H]12 |  | 39.7 | 46.9 | 46.3 |  | 18.9 |  | 50 |  |  |  |  |  |  |  | 
